Data taken from US9714231B2, “Pyrrolidine GPR40 modulators” (BRISTOL-MYERS SQUIBB COMPANY, priority 2012, dated 2017).
Structures can show the parent of a compound that is named as a salt.

These compounds were tested against human GPR40 (Homo sapiens, UniProt O14842) (assay: FDSS-based intracellular calcium assay (Human GRP40 in vitro assay)). Conditions: cells expressing GPR40, intracellular Ca2+ response, FDSS reader; read-out: hGPR40 EC50.
Format: cell-based
Set-up: 3xFLAG; expressed in transfected cells
Experimental: To conduct the fluorescent imaging plate reader (FLIPR)-based calcium flux assay to measure intracellular Ca^2+ response, cells expressing GPR40 are plated on 384 well plates (BD BIOCOAT® #356697) at a density of 20,000 cells/20 μL medium per well in phenol red and serum-free DMEM (GIBCO® #21063-029) and incubated overnight. Using BD kit #s 80500-310 or -301, the cells are incubated with 20 μL per well of Hank's buffered salt solution with 1.7 mM probenecid and Fluo-3 at 37° C. for 30 min. Compounds are dissolved in DMSO and diluted to desired concentrations with assay buffer and added to the cells as 3× solution (20 μL per well). Run fluorescence/luminescence reader FDSS (Hamamatsu) to read intracellular Ca^2+ response.

Chain of human GPR40 (O14842 whole entry): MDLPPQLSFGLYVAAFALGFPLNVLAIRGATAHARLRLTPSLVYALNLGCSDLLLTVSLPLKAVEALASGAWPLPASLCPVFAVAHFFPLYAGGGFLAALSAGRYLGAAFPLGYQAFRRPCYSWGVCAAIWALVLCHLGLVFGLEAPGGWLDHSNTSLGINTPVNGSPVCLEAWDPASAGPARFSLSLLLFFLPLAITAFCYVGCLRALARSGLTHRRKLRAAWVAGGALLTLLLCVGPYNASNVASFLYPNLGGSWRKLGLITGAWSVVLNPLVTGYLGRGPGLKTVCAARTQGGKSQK

SMILES | EC50
COc1ccc(F)c(N2CCC(Oc3ccc(N4CCCC4CC(=O)O)cc3)CC2)c1 (single isomer, unassigned) [Example 48, Isomer 1, 2-(1-(4-((1-(2-Fluoro-5-methoxyphenyl)piperidin-4-yl)oxy)phenyl)pyrrolidin-2-yl)acetic acid] | 4100 nM
COc1ccc(F)c(N2CCC(Oc3ccc(N4CC(F)(F)C[C@@H]4CC(=O)O)cc3)C(C)C2)c1 (single isomer, unassigned) [Example 53, Isomer 1, HCl] | 410 nM
COc1ccc(C)c(N2CCC(Oc3ccc(N4C[C@H](OC)C[C@@H]4CC(=O)O)cc3)C(C)C2)c1 (single isomer, unassigned) [Example 64, Isomer 1] | 240 nM
COc1ccc(C)c(N2CCC(Oc3ccc(N4C[C@H](OC)C[C@@H]4CC(=O)O)cc3)C(C)C2)c1 (single isomer, unassigned) [Example 64, Isomer 2] | 120 nM
COc1ccc(C2CCCC2(C)C)c(N2CCC(Oc3ccc(N4C[C@H](OC)C[C@@H]4CC(=O)O)cc3)CC2)c1 (single isomer, unassigned) [Example 65, Isomer 2] | 120 nM
COc1cc(N2CCC(Oc3ccc(N4C[C@H](OC)C[C@@H]4CC(=O)O)cc3)C(C)C2)c(F)cn1 (single isomer, unassigned) [Example 83, Isomer 1] | 4800 nM
COc1cc(N2CCC(Oc3ccc(N4C[C@H](OC)C[C@@H]4CC(=O)O)cc3)C(C)C2)c(F)cn1 (single isomer, unassigned) [Example 83, Isomer 2] | 370 nM
COc1cc(N2CCC(Oc3ccc(N4C[C@H](OC)C[C@@H]4CC(=O)O)cc3)C(C)C2)c(Cl)cn1 (single isomer, unassigned) [Example 84, Isomer 1, TFA] | 730 nM
COc1cc(N2CCC(Oc3ccc(N4C[C@H](OC)C[C@@H]4CC(=O)O)cc3)C(C)C2)c(Cl)cn1 (single isomer, unassigned) [Example 84, Isomer 2, TFA] | 180 nM
COc1cc(N2CCC(Oc3ccc(N4C[C@H](OC)CC4CC(=O)O)c(F)c3F)C(C)C2)c(Cl)cn1 (single isomer, unassigned) [Example 141, Isomer 1] | 410 nM
COc1cc(N2CCC(Oc3ccc(N4C[C@H](OC)CC4CC(=O)O)c(F)c3F)C(C)C2)c(Cl)cn1 (single isomer, unassigned) [Example 141, Isomer 2] | 5600 nM
COc1cc(N2CCC(Oc3ccc(N4C[C@H](OC)CC4CC(=O)O)c(F)c3F)C(C)C2)c(Cl)cn1 (single isomer, unassigned) [Example 141, Isomer 3] | 4700 nM
COc1cc(N2CCC(Oc3ccc(N4C[C@H](OC)[C@@H](F)[C@@H]4CC(=O)O)cc3)C(C)C2)c(Cl)cn1 (single isomer, unassigned) [Example 147, Isomer 1, HCl] | 170 nM
COc1cc(N2CCC(Oc3ccc(N4C[C@H](OC)[C@@H](C)[C@@H]4CC(=O)O)cn3)C(C)C2)c(C2CCCC2(C)C)cn1 (single isomer, unassigned) [Example 150, Isomer 1, HCl] | 320 nM
COc1cc(N2CCC(Oc3ccc(N4C[C@H](OC)[C@@H](C)[C@@H]4CC(=O)O)cn3)C(C)C2)c(C2CCCC2(C)C)cn1 (single isomer, unassigned) [Example 150, Isomer 2, HCl] | 110 nM
COc1cc(N2CCC(Oc3ccc(N4C[C@H](OC)[C@@H](C)[C@@H]4CC(=O)O)cn3)CC2)c(C2CCCC2(C)C)cn1 (single isomer, unassigned) [Example 151, Isomer 2, HCl] | 140 nM
COc1cc(N2CCC(Oc3ccc(N4C[C@H](OC)[C@@H](C)[C@@H]4CC(=O)O)cc3)C(C)C2)c(F)cc1F (single isomer, unassigned) [Example 169, Isomer 1] | 3500 nM
COc1cc(N2CCC(Oc3ccc(N4C[C@H](OC)[C@@H](C)[C@@H]4CC(=O)O)cc3)C(C)C2)c(F)cc1F (single isomer, unassigned) [Example 169, Isomer 2] | 450 nM

SMILES | EC50
COCC1CN(c2cc(OC)ncc2Cl)CCC1Oc1ccc(N2C[C@H](C(F)(F)F)C[C@@H]2CC(=O)O)cc1 (single isomer, unassigned) [Example 172, Isomer 1, TFA] | 1800 nM
COCC1CN(c2cc(OC)ncc2Cl)CCC1Oc1ccc(N2C[C@H](C(F)(F)F)C[C@@H]2CC(=O)O)cc1 (single isomer, unassigned) [Example 172, Isomer 2, TFA] | 460 nM
CCO[C@@H]1C[C@H](CC(=O)O)N(c2ccc(OC3CCN(c4cc(OC)ccc4F)CC3)cc2)C1 [Example 2, 2-((2R,4R)-4-Ethoxy-1-(4-((1-(2-fluoro-5-methoxyphenyl)piperidin-4-yl)oxy)phenyl)pyrrolidin-2-yl)acetic acid, HCl] | 120 nM
COc1ccc(F)c(N2CCC(Oc3ccc(N4C[C@H](c5ccccc5)C[C@@H]4CC(=O)O)cc3)CC2)c1 [Example 3, 2-((2R,4S)-1-(4-((1-(2-Fluoro-5-methoxyphenyl)piperidin-4-yl)oxy)phenyl)-4-phenylpyrrolidin-2-yl)acetic acid, HCl] | 210 nM
COc1ccc(F)c(N2CCC(Oc3ccc(N4CC(F)(F)C[C@@H]4CC(=O)O)cc3)CC2)c1 [Example 5, (S)-2-(4,4-Difluoro-1-(4-((1-(2-fluoro-5-methoxyphenyl)piperidin-4-yl)oxy)phenyl)pyrrolidin-2-yl)acetic acid, TFA] | 66 nM
COc1ccc(F)c(N2CCC(Oc3ccc(N4C[C@H](Oc5ccccc5)C[C@@H]4CC(=O)O)cc3)CC2)c1 [Example 6, 2-((2R,4R)-1-(4-((1-(2-Fluoro-5-methoxyphenyl)piperidin-4-yl)oxy)phenyl)-4-phenoxypyrrolidin-2-yl)acetic acid, HCl] | 190 nM
COc1ccc(F)c(N2CCC(Oc3ccc(N4C[C@H](Cc5ccccc5)C[C@@H]4CC(=O)O)cc3)CC2)c1 [Example 7, 2-((2R,4R)-4-Benzyl-1-(4-((1-(2-fluoro-5-methoxyphenyl)piperidin-4-yl)oxy)phenyl)pyrrolidin-2-yl)acetic acid, HCl] | 320 nM
COc1ccc(F)c(N2CCC(Oc3ccc(N4C[C@H](Cc5ccccc5)C[C@H]4CC(=O)O)cc3)CC2)c1 [Example 8, 2-((2S,4R)-4-Benzyl-1-(4-((1-(2-fluoro-5-methoxyphenyl)piperidin-4-yl)oxy)phenyl)pyrrolidin-2-yl)acetic acid, HCl] | 420 nM
COc1ccc(F)c(N2CCC(N(C)c3ccc(N4C[C@H](C(F)(F)F)C[C@@H]4CC(=O)O)cc3)CC2)c1 [Example 9, 2-((2R,4R)-1-(4-((1-(2-Fluoro-5-methoxyphenyl)piperidin-4-yl)(methyl)amino)phenyl)-4-(trifluoromethyl)pyrrolidin-2-yl)acetic acid, TFA] | 290 nM
COc1ccc(F)c(N2CC[C@H](COc3ccc(N4C[C@H](C(F)(F)F)C[C@@H]4CC(=O)O)cc3)C2)c1 [Example 10, 2-((2R,4R)-1-(4-(((S)-1-(2-Fluoro-5-methoxyphenyl)pyrrolidin-3-yl)methoxy)phenyl)-4-(trifluoromethyl)pyrrolidin-2-yl)acetic acid, HCl] | 940 nM
COc1ccc(F)c(N2CC[C@@H](COc3ccc(N4C[C@H](C(F)(F)F)C[C@@H]4CC(=O)O)cc3)C2)c1 [Example 11, 2-((2R,4R)-1-(4-(((R)-1-(2-Fluoro-5-methoxyphenyl)pyrrolidin-3-yl)methoxy)phenyl)-4-(trifluoromethyl)pyrrolidin-2-yl)acetic acid, HCl] | 630 nM
COc1ccc(F)c(N2CCC(Oc3ccc(N4C[C@H](OC)C[C@@H]4CC(=O)O)cc3F)CC2)c1 [Example 15, 2-((2R,4R)-1-(3-Fluoro-4-((1-(2-fluoro-5-methoxyphenyl)piperidin-4-yl)oxy)phenyl)-4-methoxypyrrolidin-2-yl)acetic acid, HCl] | 290 nM
COc1cccc(N2CCC(Oc3ccc(N4C[C@H](C(F)(F)F)C[C@@H]4CC(=O)O)cc3)CC2)c1 [Example 19, 2-((2R,4R)-1-(4-((1-(3-Methoxyphenyl)piperidin-4-yl)oxy)phenyl)-4-(trifluoromethyl)pyrrolidin-2-yl)acetic acid, HCl] | 680 nM
O=C(O)C[C@H]1C[C@@H](C(F)(F)F)CN1c1ccc(OC2CCN(c3ccccc3F)CC2)cc1 [Example 20, 2-((2R,4R)-1-(4-((1-(2-Fluorophenyl)piperidin-4-yl)oxy)phenyl)-4-(trifluoromethyl)pyrrolidin-2-yl)acetic acid, TFA] | 750 nM
CCOc1cccc(N2CCC(Oc3ccc(N4C[C@H](C(F)(F)F)C[C@@H]4CC(=O)O)cc3)CC2)c1 [Example 21, 2-((2R,4R)-1-(4-((1-(3-Ethoxyphenyl)piperidin-4-yl)oxy)phenyl)-4-(trifluoromethyl)pyrrolidin-2-yl)acetic acid, HCl] | 850 nM
O=C(O)C[C@H]1C[C@@H](C(F)(F)F)CN1c1ccc(OC2CCN(c3ccccc3)CC2)cc1 [Example 22, 2-((2R,4R)-1-(4-((l-Phenylpiperidin-4-yl)oxy)phenyl)-4-(trifluoromethyl)pyrrolidin-2-yl)acetic acid, HCl] | 1800 nM
COc1cc(N2CCC(Oc3ccc(N4C[C@H](OC)C[C@@H]4CC(=O)O)cc3)CC2)c(F)cc1Cc1ccccc1 [Example 23, 2-((2R,4R)-1-(4-((1-(4-Benzyl-2-fluoro-5-methoxyphenyl)piperidin-4-yl)oxy)phenyl)-4-methoxypyrrolidin-2-yl)acetic acid, TFA] | 3200 nM
O=C(O)C[C@H]1C[C@@H](C(F)(F)F)CN1c1ccc(OC2CCN(c3cccc(OC(F)(F)F)c3)CC2)cc1 [Example 24, 2-((2R,4R)-1-(4-((1-(3-(Trifluoromethoxy)phenyl)piperidin-4-yl)oxy)phenyl)-4-(trifluoromethyl)pyrrolidin-2-yl)acetic acid, HCl] | 4100 nM
